We go through two compounds from US20240376176A1 (priority 2021, published 2024).

One series has as its system sciatic nerve. The conditions noted are these: rat, in vivo.
Series [1] addresses natural sodium channel proteins. The conditions noted are these: cited from earlier work.
For series [2], the system named is sciatic nerves and adjacent tissues. The conditions noted are these: rat, in vivo.

pKd: −log10 of the molar value. Where a name gives a salt, the structure may show the parent alone.

A word on the pKd: it is the negative decadic logarithm of the Kd, by convention in mol/L.

For the compound `CCCCN1CCCCC1C(=O)Nc1c(C)cccc1C` (stereo not drawn) [Free Bup, bupivacaine hydrochloride], the “Duration of nerve block” value in the series with sciatic nerve is 2.4 ± 0.3 h.

Regarding `NC1=N[C@H](O)[C@H]2[C@H]3O[C@]4(O)O[C@@H]([C@@H](O)[C@@]2(N1)[C@@H]4O)[C@]3(O)CO` [Free TTX, tetrodotoxin], the pKd in series [1] was about 8.89. In series [2], the “Inflammation Score (range) Day 4” value turned out to be 0.5, the “Inflammation Score (range) Day 14” value is 0 (0-1.0), the “Myotoxicity Score (range) Day 4” value is listed as 0 (0-1.0) and the “Myotoxicity Score (range) Day 14” value is 0 (0-1.0).
